The numbers were not newly measured in US7476743B2, “Compounds, compositions, and methods” (Cytokinetics, Inc., priority 2002, dated 2009), which cites them from elsewhere.

The data set concerns A549 cells. As to conditions: data provided by National Cancer Institute.

Structures are written as SMILES.

For `COc1cccc2c1C(=O)c1c(O)c3c(c(O)c1C2=O)C[C@@](O)(C(=O)CO)C[C@@H]3O[C@H]1C[C@H](N)[C@H](O)[C@H](C)O1` [doxorubicin], the concentration for 50% growth inhibition (GI50) is 63 nM. On to `NC(=O)NO` [hydroxyurea], for which the 50% growth inhibitory concentration (GI50) is 500000 nM. Regarding `O=c1[nH]cc(F)c(=O)[nH]1` [5-fluorouracil], the GI50 is 1000 nM. Consider `CC(=O)O[C@H]1C(=O)[C@@]2(C)[C@H]([C@H](OC(=O)c3ccccc3)[C@]3(O)C[C@H](OC(=O)[C@H](O)[C@@H](NC(=O)c4ccccc4)c4ccccc4)C(C)=C1C3(C)C)[C@]1(OC(C)=O)CO[C@@H]1C[C@@H]2O` [paclitaxel], for which the 50% growth inhibitory concentration (GI50) is 4 nM.

The term GI50 denotes the concentration giving 50% growth inhibition.
